Drawing on patent US20050004134A1, “Thiazole derivative and pharmaceutical use thereof” (priority 2001, published 2005), this text covers melting point for 38 compounds.

Structures are written as SMILES. Some results are limits rather than exact numbers.

The compound `CCCn1nc(-c2sc(N)nc2-c2ccccc2)ccc1=O` [Example 86, 6-(2-Amino-4-phenyl-1,3-thiazol-5-yl)-2-propyl-3(2H)-pyridazinone] gave a melting point of 224 to 226 °C. To `Cc1ccccc1C(=O)Nc1nc(-c2ccccc2)c(-c2ccc(=O)n(C(C)C)n2)s1` [Example 34, N-[5-(1-Isopropyl-6-oxo-1,6-dihydro-3-pyridazinyl)-4-phenyl-1,3-thiazol-2-yl]-2-methylbenzamide] belongs 221 to 222 °C; to `CC(C)n1nc(-c2sc(C(=O)N3CCCCC3)nc2-c2ccccc2)ccc1=O` [Example 218, 2-Isopropyl-6-[4-phenyl-2-(1-piperidinylcarbonyl)-1,3-thiazol-5-yl]-3(2H)-pyridazinone], 111 to 112 °C; to `CC(C)n1nc(-c2sc(N)nc2-c2ccc(F)cc2)ccc1=O` [Example 77, 6-[2-amino-4-(4-fluorophenyl)-1,3-thiazol-5-yl]-2-isopropyl-3(2H)-pyridazinone], 255.5 to 257 °C.

`CCCn1nc(-c2sc(C(=O)NC3CC3)nc2-c2ccccc2)ccc1=O` [Example 191, N-cyclopropyl-5-(6-oxo-1-propyl-1,6-dihydro-3-pyridazinyl)-4-phenyl-1,3-thiazole-2-carboxamide]: the melting point is 146 to 147 °C. To `CC(C)n1nc(-c2sc(NC(=O)OC(C)(C)C)nc2-c2ccccc2)ccc1=O` [Example 95, tert-butyl 5-(1-isopropyl-6-oxo-1,6-dihydro-3-pyridazinyl)-4-phenyl-1,3-thiazol-2-ylcarbamate] belongs 198 to 199 °C; to `O=C(NCc1ccccn1)c1nc(-c2ccccc2)c(-c2ccc(=O)[nH]n2)s1` [Example 200, 5-(6-oxo-1,6-dihydro-3-pyridazinyl)-4-phenyl-N-(2-pyridinylmethyl)-1,3-thiazole-2-carboxamide], 221 to 222.5 °C. To `CC(C)n1nc(-c2sc(NC(=O)CCN3CCCC3)nc2-c2ccccc2)ccc1=O.Cl` belongs 224 to 225 °C; to `CC(C)n1nc(-c2sc(C(N)=O)nc2-c2cccc(F)c2)ccc1=O` [Example 164, 4-(3-Fluorophenyl)-5-(1-isopropyl-6-oxo-1,6-dihydro-3-pyridazinyl)-1,3-thiazole-2-carboxamide], 248 to 250 °C. To `CC(C)n1nc(-c2sc(NC(=O)c3ccccc3F)nc2-c2ccccc2)ccc1=O` [Example 37, 2-Fluoro-N-[5-(1-isopropyl-6-oxo-1,6-dihydro-3-pyridazinyl)-4-phenyl-1,3-thiazol-2-yl]benzamide] belongs 251 to 252 °C; to `Cn1nc(-c2sc(N)nc2-c2ccccc2)ccc1=O` [Example 85, 6-(2-amino-4-phenyl-1,3-thiazol-5-yl)-2-methyl-3(2H)-pyridazinone], 238 to 241 °C; to `CC(=O)N1CCN(CC(=O)Nc2nc(-c3ccccc3)c(-c3ccc(=O)n(C(C)C)n3)s2)CC1` [Example 150, 2-(4-Acetyl-1-piperazinyl)-N-[5-(1-isopropyl-6-oxo-1,6-dihydro-3-pyridazinyl)-4-phenyl-1,3-thiazol-2-yl]acetamide], 220 to 222 °C. With `C=CCn1nc([SH]2C=C(c3ccccc3)N=C2C(=O)NC2CC2)ccc1=O` (stereo not drawn) [Example 193, S-(1-allyl-6-oxo-1,6-dihydro-3-pyridazinyl)-N-cyclopropyl-4-phenyl-1,3-thiazole-2-carboxamide], the melting point was 167.5 to 168.5 °C.

`CC(C)n1nc(-c2sc(NC(=O)CCN3CCOCC3)nc2-c2ccccc2)ccc1=O` [Example 123, N-[5-(1-Isopropyl-6-oxo-1,6-dihydro-3-pyridazinyl)-4-phenyl-1,3-thiazol-2-yl]-3-(4-morpholinyl)propanamide] came in with a melting point of 197 to 198 °C. The compound `Cc1cnc(CNC(=O)c2nc(-c3ccc(F)cc3)c(-c3ccc(=O)n(C(C)C)n3)s2)cn1` [Example 221, 4-(4-Fluorophenyl)-5-(1-isopropyl-6-oxo-1,6-dihydro-3-pyridazinyl)-N-[(5-methyl-2-pyrazinyl)methyl]-1,3-thiazole-2-carboxamide] gave a melting point of 187.5 to 188.5 °C. To `CCN(CC)CCNCC(=O)Nc1nc(-c2ccccc2)c(-c2ccc(=O)n(C(C)C)n2)s1.Cl.Cl` belongs 157 to 159 °C; to `NC(=O)c1nc(-c2ccccc2)c(-c2ccc(=O)[nH]n2)s1` [Example 158, 5-(6-oxo-1,6-dihydro-3-pyridazinyl)-4-phenyl-1,3-thiazole-2-carboxamide], above 250 °C; to `CC(C)n1nc(-c2sc(NC(=O)CCNCc3ccccn3)nc2-c2ccccc2)ccc1=O` [Example 124, N-[5-(1-Isopropyl-6-oxo-1,6-dihydro-3-pyridazinyl)-4-phenyl-1,3-thiazol-2-yl]-3-[(2-pyridinylmethyl)amino]propanamide], 200 to 201 °C.

Turning to `CC(C)n1nc(-c2sc(C(=O)N3CCCC3)nc2-c2ccccc2)ccc1=O` [Example 226, 2-Isopropyl-6-[4-phenyl-2-(1-pyrrolidinylcarbonyl)-1,3-thiazol-5-yl]-3(2H)-pyridazinone], the melting point lay in the range of 169 to 170.5 °C. To `Cn1nc(-c2sc(C(=O)NCc3ccccn3)nc2-c2ccccc2)ccc1=O` [Example 201, 5-(1-methyl-6-oxo-1,6-dihydro-3-pyridazinyl)-4-phenyl-N-(2-pyridinylmethyl)-1,3-thiazole-2-carboxamide] belongs 189 to 190.5 °C; to `CC(C)n1nc(-c2sc(C(=O)N3CCN(C)CC3)nc2-c2ccccc2)ccc1=O` [Example 228, 2-Isopropyl-6-{2-[(4-methyl-1-piperazinyl)carbonyl]-4-phenyl-1,3-thiazol-5-yl)-3(2H)-pyridazinone], 155 to 156.5 °C.

Turning to `CCN(CC)CCNCc1ccc(C(=O)Nc2nc(-c3ccccc3)c(-c3ccc(=O)n(C(C)C)n3)s2)cc1` [Example 142, 4-({[2-(Diethylamino)ethyl]amino}methyl)-N-[5-(1-isopropyl-6-oxo-1,6-dihydro-3-pyridazinyl)-4-phenyl-1,3-thiazol-2-yl]benzamide], the melting point fell in the range of 158 to 160 °C. `CCNc1nc(-c2ccccc2)c(-c2ccc(=O)n(C(C)C)n2)s1` [Example 62, 6-[2-(Ethylamino)-4-phenyl-1,3-thiazol-5-yl]-2-isopropyl-3(2H)-pyridazinone]: the melting point was 167 to 169 °C.

With `CCCNc1nc(-c2ccccc2)c(-c2ccc(=O)n(C(C)C)n2)s1` [Example 73, 2-Isopropyl-6-[4-phenyl-2-(propylamino)-1,3-thiazol-5-yl]-3(2H)-pyridazinone], the melting point fell in the range of 165 to 166 °C.

Turning to `Nc1nc(-c2ccccc2)c(-c2ccc(=O)[nH]n2)s1` [Example 84, 6-(2-amino-4-phenyl-1,3-thiazol-5-yl)-3(2H)-pyridazinone], the melting point is above 250 °C. The compound `C=CCn1nc(-c2sc(C(=O)NCc3ccccn3)nc2-c2ccccc2)ccc1=O` [Example 204, 5-(1-Allyl-6-oxo-1,6-dihydro-3-pyridazinyl)-4-phenyl-N-(2-pyridinylmethyl)-1,3-thiazole-2-carboxamide] yielded a melting point of 117 to 118 °C.

`CCCn1nc(-c2sc(C(=O)NC(C)C)nc2-c2ccccc2)ccc1=O` [Example 179, N-isopropyl-5-(6-oxo-1-propyl-1,6-dihydro-3-pyridazinyl)-4-phenyl-1,3-thiazole-2-carboxamide] yielded a melting point of 146.5 to 147.5 °C. To `CC(C)NC(=O)c1nc(-c2ccccc2)c(-c2ccc(=O)n(C)n2)s1` [Example 177, N-isopropyl-5-(1-methyl-6-oxo-1,6-dihydro-3-pyridazinyl)-4-phenyl-1,3-thiazole-2-carboxamide] belongs 154 to 154.5 °C; to `CCCNC(=O)c1nc(-c2ccccc2)c(-c2ccc(=O)n(C)n2)s1` [Example 170, 5-(1-methyl-6-oxo-1,6-dihydro-3-pyridazinyl)-4-phenyl-N-propyl-1,3-thiazole-2-carboxamide], 108 to 109 °C; to `CC(C)n1nc(-c2sc(C(=O)NCc3ccncc3)nc2-c2ccc(F)cc2)ccc1=O` [Example 236, 4-(4-Fluorophenyl)-5-(1-isopropyl-6-oxo-1,6-dihydro-3-pyridazinyl)-N-(4-pyridinylmethyl)-1,3-thiazole-2-carboxamide], 155 to 157 °C.

Regarding `COCCCNCC(=O)Nc1nc(-c2ccccc2)c(-c2ccc(=O)n(C(C)C)n2)s1.Cl`, the melting point was above 250 °C. To `CCCCCCNc1nc(-c2ccccc2)c(-c2ccc(=O)n(C(C)C)n2)s1` [Example 14, 6-[2-(hexylamino)-4-phenyl-1,3-thiazol-5-yl]-2-isopropyl-3(2H)-pyridazinone] belongs 90 to 92 °C. To `CC(C)n1nc(-c2sc(NCCCN3CCOCC3)nc2-c2ccccc2)ccc1=O` [Example 68, 2-I sopropyl-6-(2-{[3-(4-morpholinyl)propyl]amino}-4-phenyl-1,3-thiazol-5-yl)-3(2H)-pyridazinone] belongs 194 to 195 °C; to `CC(C)n1nc(-c2sc(NC(=O)CNCCCN3CCOCC3)nc2-c2ccccc2)ccc1=O.Cl.Cl`, 211 to 213 °C; to `CCCNC(=O)c1nc(-c2ccccc2)c(-c2ccc(=O)n(Cc3ccccc3)n2)s1` [Example 174, 5-(1-benzyl-6-oxo-1,6-dihydro-3-pyridazinyl)-4-phenyl-N-propyl-1,3-thiazole-2-carboxamide], 120 to 121 °C. To `CC(=O)NCCNC(=O)c1nc(-c2ccccc2)c(-c2ccc(=O)n(C(C)C)n2)s1` [Example 217, N-[2-(Acetylamino)ethyl]-5-(1-isopropyl-6-oxo-1,6-dihydro-3-pyridazinyl)-4-phenyl-1,3-thiazole-2-carboxamide] belongs 170 to 171.5 °C. Regarding `CC(C)n1nc(-c2sc(NC(=O)CNC3CC3)nc2-c2ccccc2)ccc1=O.Cl`, the melting point is 123 to 125 °C. Consider `CC(C)n1nc(-c2sc(NC(=O)c3ccc4ccccc4c3)nc2-c2ccccc2)ccc1=O` [Example 30, N-[5-(1-Isopropyl-6-oxo-1,6-dihydro-3-pyridazinyl)-4-phenyl-1,3-thiazol-2-yl]-2-naphthamide], for which the melting point lay within 227 to 229 °C.
